“And” between values parts separate entries of the source, which are not always exact repeats. Equal entries are not always repeated.
How the values were obtained:
[1] = test system: glutathione peroxidase (GPx) activity in RKO cells; assay: GPx activity in RKO cells; type: cell-based; conditions: 10 µg/mL, 24 h
Experimental: (§1) In addition, two colorectal cancer cell lines, RKO and SW1116, were distinguished based on a different response to the EB5 derivative. To perform subsequent analyses, the selected CRC lines were treated with EB5 derivative at a concentration of 10 µg/mL for 24 h. Untreated cells were used as a negative control. Three biological replicates were performed.
(§2) To examine the antioxidant capacity of the cells as well as lipid peroxidation and to evaluate the activity of antioxidant enzymes, the cells were suspended in lysis buffer (containing 4 mg of […]™ Protease Inhibitor Cocktail and 10 µL of Phosphatase Inhibitor Cocktail 3 in 1 mL of PBS; Sigma-Aldrich, St Louis, MO, USA). Subsequently, the cells were placed in liquid nitrogen for 30 min, followed by storage at −80 °C until further analysis.
(§3) Superoxide dismutase (SOD), glutathione peroxidase (GPx) and catalase (CAT) activities were assessed using a commercially purchased Cayman Chemicals Superoxide Dismutase Assay Kit, a Cayman Chemicals Glutathione Peroxidase Assay Kit and a Catalase Assay Kit (Cayman Chemicals, Ann Arbor, MI, USA), respectively, according to the manufacturer’s recommendations and based on a previous study. […] The level of change in absorbance was measured spectrophotometrically at the appropriate wavelength for the assay, i.e., for SOD in the range 440–460 nm, for GPx at 340 nm and for CAT at 540 nm.

[2] = test system: Caco2 cells; assay: MTT cytotoxicity assay, Caco2; type: cell-based; conditions: Homo sapiens, Caco-2; Caco2, MTT, 24 h; read-out: IC50 value
[3] = test system: CAT gene expression in RKO cells; assay: CAT mRNA, real-time RT-qPCR, RKO; type: cell-based; conditions: 10 µg/mL, 24 h
Experimental: as §1
(§4) Total RNA from treated cells was extracted using TRIzol reagent (Sigma-Aldrich, St Louis, MO, USA) according to the manufacturer’s instructions. The obtained RNA was assessed qualitatively and quantitatively by agarose gel electrophoresis and by spectrophotometric measurement using MaestroNano MN-913 (MaestroGen Inc., Las Vegas, NV, USA), respectively. The obtained extracts provided the starting material for the assessment of genes changes at the mRNA level.
(§5) Changes in the expression of SOD1, SOD2, CAT and GPX3 genes involved in antioxidant systems were assessed by real-time RT-qPCR using a LightCycler® 480 System apparatus (Roche, Basel, Switzerland). A commercially purchased GoTaq® 1-Step RT-qPCR System (Promega, Madison, WI, USA) was used, while the primers and reaction conditions were the same as in the previous study performed by Kruszniewska-Rajs et al.. GAPDH was used as the reference gene. The mRNA expression level studied genes were then determined by the 2^−ΔCt relative quantification method. All samples were tested in triplicate. The specificity of the reaction was evaluated based on the melting temperature curve, as well as using electrophoresis of the amplification products in a 2% agarose gel.

[4] = test system: SW1116 cells; assay: Lipid peroxidation, MDA assay, SW1116; type: cell-based; conditions: SW1116, 10 µg/mL, 24 h
Experimental: (§6) In addition, two colorectal cancer cell lines, RKO and SW1116, were distinguished based on a different response to the EB5 derivative. […] Untreated cells were used as a negative control. Three biological replicates were performed. To examine the antioxidant capacity of the cells as well as lipid peroxidation and to evaluate the activity of antioxidant enzymes, the cells were suspended in lysis buffer (containing 4 mg of […]™ Protease Inhibitor Cocktail and 10 µL of Phosphatase Inhibitor Cocktail 3 in 1 mL of PBS; Sigma-Aldrich, St Louis, MO, USA). Subsequently, the cells were placed in liquid nitrogen for 30 min, followed by storage at −80 °C until further analysis. To assess the level of lipid peroxidation, the Malondialdehyde Assay Kit (Aoxre BioSciences, Burlingame, CA, USA) was used, according to the manufacturer’s recommendations.

[5] = test system: SW1116 cells; assay: MTT cytotoxicity assay, SW1116; conditions: for viability at 10 µg/mL / IC50: Homo sapiens, SW 1116, 24 h; for IC50: read-out: IC50 value
Experimental: (§7) Six colorectal cancer cell lines, RKO, HT29, DLD-1, HCT116, Caco2 and SW1116 (CRL-2577, HTB-38, CCL-221, CCL-247, HTB-37, CCL-233; ATCC, Manassas, VA, USA, respectively, for CRC lines), and one normal cell line, CCD-841CoN (CRL-1790, ATCC, USA), were routinely cultured at 37 °C in a 5% CO2 incubator (Direct Heat CO2; Thermo Scientific, Waltham, MA, USA) in cell line-appropriate culture medium according to the manufacturer’s recommendations. Eagle’s minimum essential medium (EMEM) was used to culture RKO, Caco2 and CCD-841CoN lines, while McCoy’s 5A medium was used for HT29 and HCT116 lines. DLD-1 cells were grown in RPMI-1640 medium, whereas SW1116 cells were maintained in Leibovitz’s L-15 medium. All culture media were supplemented with 10% fetal bovine serum (EuroClone, Milan, Italy), and gentamycin at the concentration […] (BioWhittaker, Lonza, Basel, Switzerland) was also applied to prevent culture contamination.
(§8) For this purpose, cells were exposed to the test compound for 24 h at concentrations of 0.1, 1, 10, 20, 50 and 100 μg/mL. Control cells were not treated with the compounds. MTT (0.25 mg/mL) was then added to the cultures and incubated for 3 h at 37 °C. After a time, the cells were washed with phosphate buffered saline (PBS), and next, formazan dye was dissolved in 100 μL of dimethyl sulfoxide (Sigma-Aldrich, St Louis, MO, USA). Absorbance was measured at 540 nm using a Wallac 1420 VICTOR microplate reader (PerkinElmer, Waltham, MA, USA).

[6] = test system: colorectal cancer cell lines RKO, HT29, DLD-1, HCT116, Caco2 and SW1116; assay: MTT cytotoxicity assay, statements over all tested cell lines; conditions: MTT, 24 h
Experimental: as §7, §8

[7] = test system: HT29 cells; assay: MTT cytotoxicity assay, HT29; type: cell-based; conditions: Homo sapiens, HT-29; HT29, MTT, 24 h; read-out: IC50 value
Source text: (§9) Control cells were not treated with the compounds.

[8] = test system: RKO cells; assay: MTT cytotoxicity assay, RKO; conditions: 24 h; for viability at 10 µg/mL / IC50: Homo sapiens; for IC50: read-out: IC50 value
Experimental: as §7, §8

[9] = test system: RKO cells; assay: Lipid peroxidation, MDA assay, RKO; type: cell-based; conditions: 10 µg/mL, 24 h
Experimental: as §6

[10] = test system: catalase (CAT) activity in SW1116 cells; assay: CAT activity in SW1116 cells; type: cell-based; conditions: SW1116, 10 µg/mL, 24 h
Experimental: as §1, §2
Superoxide dismutase (SOD), glutathione peroxidase (GPx) and catalase (CAT) activities were assessed using a commercially purchased Cayman Chemicals Superoxide Dismutase Assay Kit, a Cayman Chemicals Glutathione Peroxidase Assay Kit and a Catalase Assay Kit (Cayman Chemicals, Ann Arbor, MI, USA), respectively, according to the manufacturer’s recommendations and based on a previous study. The cell supernatant from previously prepared cell lysates of the tested lines provided material for further analyses. The level of change in absorbance was measured spectrophotometrically at the appropriate wavelength for the assay, i.e., for SOD in the range 440–460 nm, for GPx at 340 nm and for CAT at 540 nm.

[11] = test system: DLD-1 cells; assay: MTT cytotoxicity assay, DLD-1; type: cell-based; conditions: Homo sapiens; DLD-1, MTT, 24 h; read-out: IC50 value
Source text: as §9

[12] = test system: superoxide dismutase (SOD) activity in RKO cells; assay: SOD activity in RKO cells; type: cell-based; conditions: 10 µg/mL, 24 h
Experimental: as §1, §2, §3

[13] = test system: HCT116 cells; assay: MTT cytotoxicity assay, HCT116; type: cell-based; conditions: Homo sapiens; HCT 116, MTT, 24 h; read-out: IC50 value
Source text: as §9

[14] = test system: SOD2 gene expression in SW1116 cells; assay: SOD2 mRNA, real-time RT-qPCR, SW1116; type: cell-based; conditions: SW1116, 10 µg/mL, 24 h
Experimental: as §1, §4, §5

[15] = test system: CCD-841CoN cells; assay: cells; type: cell-based; conditions: Homo sapiens; CCD-841CoN normal cells, MTT, 24 h; read-out: IC50 value
Source text: as §9

[16] = test system: superoxide dismutase (SOD) activity in SW1116 cells; assay: SOD activity in SW1116 cells; type: cell-based; conditions: SW1116, 10 µg/mL, 24 h
Experimental: as §1, §2, §3

[17] = test system: RKO cells; assay: Total antioxidant capacity (ABTS+), RKO; type: cell-based; conditions: 10 µg/mL, 24 h
Experimental: as §1, §2
The ABTS+ radical cation was used to assess the total antioxidant capacity (TAC) of the tested cells. The principle of the method is based on the reduction of the formed blue-green chromophore ABTS+ as a result of the reaction of ABTS (Sigma-Aldrich, St Louis, MO, USA) with potassium persulphate (Sigma-Aldrich, St Louis, MO, USA). The degree of decolorization of the ABTS+ radical cation depends on the antioxidant activity of the cells and is determined as a function of concentration and time in relation to Trolox reactivity (TEAC-Trolox equivalent antioxidant capacity).

[18] = test system: SOD1 gene expression in SW1116 cells; assay: SOD1 mRNA, real-time RT-qPCR, SW1116; type: cell-based; conditions: SW1116, 10 µg/mL, 24 h
Experimental: as §1, §4, §5

[19] = test system: SOD1 gene expression in RKO cells; assay: SOD1 mRNA, real-time RT-qPCR, RKO; type: cell-based; conditions: 10 µg/mL, 24 h
Experimental: as §1, §4, §5

[20] = test system: CAT gene expression in SW1116 cells; assay: CAT mRNA, real-time RT-qPCR, SW1116; type: cell-based; conditions: SW1116, 10 µg/mL, 24 h
Experimental: as §1, §4, §5

SMILES: O=c1[nH]cc(F)c(=O)[nH]1 [5FU, 5-fluorouracil]
- GPx activity vs. cells treated with EB5 [1]: slight increase
- IC50 [2]: > 100 µg/mL and > 769 µM
- CAT gene expression vs. untreated cells [3]: significant decrease in expression
- MDA level compared to the control [4]: did not cause changes
- viability at 10 µg/mL [5]: ≥ 50%
- IC50 [5]: > 100 µg/mL and > 769 µM
- cytotoxic effect compared with the other tested compounds [6]: weaker
- IC50 [7]: > 100 µg/mL and > 769 µM
- viability at 10 µg/mL [8]: ≥ 50%
- IC50 [8]: > 100 µg/mL and > 769 µM
- increase in MDA levels compared to the control cells [9]: about 62.2%
- catalase activity compared to cells treated with EB5 [10]: higher catalase activity
- catalase activity compared to cells treated with betulin [10]: higher catalase activity
- catalase activity compared to the control [10]: higher catalase activity
- IC50 [11]: > 100 µg/mL and > 769 µM
- SOD activity compared to cells treated with betulin [12]: modest increase
- IC50 [13]: > 100 µg/mL and > 769 µM

SMILES: C=C(C)[C@@H]1CC[C@]2(CO)CC[C@]3(C)[C@H](CC[C@@H]4[C@@]5(C)CC[C@H](O)C(C)(C)[C@@H]5CC[C@]43C)[C@@H]12 [Betulin, lup-20(29)-ene-3β,28-diol]
- SOD2 gene expression vs. cisplatin [14]: Decreased SOD2 gene expression
- IC50 [15]: 5.26 µg/mL and 12.4 µM
- IC50 [2]: 11.2 µg/mL and 26.5 µM
- CAT gene expression vs. untreated cells [3]: No statistically significant changes
- MDA level compared to the control [4]: did not cause changes
- increase in SOD activity compared to the untreated cells [16]: about 32.3%
- viability at 10 µg/mL [5]: ≥ 50%
- IC50 [5]: 9.77 µg/mL and 23.1 µM
- decrease in the viability ([5]; SW1116, 10 µg/mL, 24 h): ≤ 50%
- reduction in TAC compared to the control cells [17]: about 26.4%
- IC50 [7]: 8.49 µg/mL and 20.1 µM
- decrease in the viability ([8]; 10 µg/mL): ≤ 50%
- viability at 10 µg/mL [8]: ≥ 50%
- IC50 [8]: 11.2 µg/mL and 25.2 µM
- increase in MDA levels compared to the control cells [9]: about 73.1%
- SOD1 gene expression vs. EB5 derivative [18]: statistically significant difference
- SOD1 gene expression vs. cisplatin [18]: statistically significant difference
- SOD1 gene expression vs. non-treated cells [18]: statistically significant decrease in mRNA expression
- SOD1 gene expression vs. non-treated cells ([18]; listed as B): statistically significant difference
- SOD1 gene expression vs. cisplatin-treated cells [19]: decrease in SOD1 gene expression
- catalase activity compared to the control [10]: did not cause changes
- IC50 [11]: 4.29 µg/mL and 10.2 µM
- IC50 [13]: 4.63 µg/mL and 11 µM
- CAT gene expression vs. EB5 derivative [20]: decrease in expression was higher
- CAT gene expression vs. cisplatin [20]: decrease in expression was higher
- CAT gene expression vs. untreated cells [20]: statistically significant decrease in CAT gene expression

From PMC11352258, “The Influence of Betulin and Its Derivatives on Selected Colorectal Cancer Cell Lines’ Viability and Their Antioxidant Systems” (Cells, 2024)
